Experimental data as given in ChEMBL document CHEMBL6182856, “Novel one-/two-photon excited carbazole/quinolinium photosensitizers manifest nanomolar and hypoxia-resistant tumor photodynamic therapy by accelerating apoptosis, ferroptosis, and autophagy” (Eur J Med Chem, 2025).
Calls of active or inactive are those of the source. No cut-off for these calls is given here.

Experiments:
[1] = Photosensitizing ability of the compound in methanol assessed as singlet oxygen production by measuring quantum yield measured upon irradiation by DPBF based assay; assay type: functional
[2] = Photosensitizing ability of the compound assessed as superoxide radical production measured upon irradiation by DHE probe based assay; assay type: functional
[3] = Photosensitizing ability of the compound assessed as hydroxyl radical production measured upon irradiation by HPF probe based assay; assay type: functional
[4] = Phototoxicity against human A549 cells assessed as inhibition of cell growth incubated for 24 hrs measured under normoxia conditions and after one-photon excitation upon irradiation with light at 520 nm, 200 mW/cm2 for 10 mins by MTT assay; assay type: functional, cell-based; details: A549, light or radiation study
[5] = system: A549; experiment: Cytotoxicity against human A549 cells assessed as inhibition of cell growth incubated for 24 hrs measured under normoxia conditions by MTT assay; assay type: functional, cell-based; details: A549, 24 h
[6] = system: HT-29; experiment: Cytotoxicity against human HT-29 cells assessed as inhibition of cell growth incubated for 24 hrs measured under normoxia conditions by MTT assay; assay type: functional, cell-based; details: HT-29, 24 h
[7] = system: 4T1; experiment: Cytotoxicity against mouse 4T1 cells assessed as inhibition of cell growth incubated for 24 hrs measured under normoxia conditions by MTT assay; assay type: functional, cell-based; details: 4T1, 24 h
[8] = Phototoxicity against human HT-29 cells assessed as inhibition of cell growth incubated for 24 hrs measured under normoxia conditions and after one-photon excitation upon irradiation with light at 520 nm, 200 mW/cm2 for 10 mins by MTT assay; assay type: functional, cell-based; details: HT-29, light or radiation study
[9] = Phototoxicity against mouse 4T1 cells assessed as inhibition of cell growth incubated for 24 hrs measured under normoxia conditions and after one-photon excitation upon irradiation with light at 520 nm, 200 mW/cm2 for 10 mins by MTT assay; assay type: functional, cell-based; details: 4T1, light or radiation study
[10] = Phototherapeutic index, ratio of IC50 for cytotoxicity against human HT-29 cells measured under normoxia conditions to IC50 for phototoxicity against human HT-29 cells measured under normoxia conditions and after one-photon excitation upon irradiation with light at 520 nm, 200 mW/cm2 for 10 mins; assay type: functional
[11] = system: 4T1; experiment: Phototherapeutic index, ratio of IC50 for cytotoxicity against mouse 4T1 cells measured under normoxia conditions to IC50 for phototoxicity against mouse 4T1 cells measured under normoxia conditions and after one-photon excitation upon irradiation with light at 520 nm, 200 mW/cm2 for 10 mins; assay type: functional
[12] = Phototherapeutic index, ratio of IC50 for cytotoxicity against human A549 cells measured under normoxia conditions to IC50 for phototoxicity against human A549 cells measured under normoxia conditions and after one-photon excitation upon irradiation with light at 520 nm, 200 mW/cm2 for 10 mins; assay type: functional

Structure (SMILES) | Activity [1] | Activity [2] | Activity [3] | IC50 [4] [µM] | IC50 [5] [µM] | IC50 [6] [µM] | IC50 [7] [µM] | IC50 [8] [µM] | IC50 [9] [µM] | Ratio IC50 [10] | Ratio IC50 [11] | Ratio IC50 [12]
CCn1c2ccc(/C=C/c3cc[n+](C)c4ccccc34)cc2c2cc([N+](=O)[O-])ccc21.I | 0.13 | Active | Active | 4.11 | > 100 | 59.4 | 20.1 | 3.55 | 4.81 | 16 | 4 | 
CCn1c2ccc(N)cc2c2cc(/C=C/c3cc[n+](C)c4ccccc34)ccc21.[I-] | 0.04 | Active | Active | 2.23 | 22.4 | 19.3 | 20.3 | 2.77 | 3.66 | 7 | 5 | 10
